Test results reported in patent US11739100B2, “2,3-dihydro-1h-imidazo{1,2-a}pyrimidin-5-one and this 1,2,3,4-tetrahydropyrimido{1,2-a}pyrimidin-6-one derivatives comprising a substituted morpholine, preparation thereof and pharmaceutical use thereof” (SANOFI, priority 2012, dated 2023).

target: T1, recombinant Vps34 (Homo sapiens, UniProt Q8NEB9); assay: Phosphorylation of phosphatidylinositol (PI) by Vps34 in vitro, ADP detected by TR-FRET (HTRF Transcreener ADP); type: biochemical; conditions: 10 μM ATP, 55 μg/ml PI, approximately 3 nM Vps34, 1 hour at ambient temperature; absolute IC50, mean of two independent experiments; read-out: IC50 activity range
T1 construct: purchased Invitrogen PV5126
T1 sequence (Q8NEB9 whole entry): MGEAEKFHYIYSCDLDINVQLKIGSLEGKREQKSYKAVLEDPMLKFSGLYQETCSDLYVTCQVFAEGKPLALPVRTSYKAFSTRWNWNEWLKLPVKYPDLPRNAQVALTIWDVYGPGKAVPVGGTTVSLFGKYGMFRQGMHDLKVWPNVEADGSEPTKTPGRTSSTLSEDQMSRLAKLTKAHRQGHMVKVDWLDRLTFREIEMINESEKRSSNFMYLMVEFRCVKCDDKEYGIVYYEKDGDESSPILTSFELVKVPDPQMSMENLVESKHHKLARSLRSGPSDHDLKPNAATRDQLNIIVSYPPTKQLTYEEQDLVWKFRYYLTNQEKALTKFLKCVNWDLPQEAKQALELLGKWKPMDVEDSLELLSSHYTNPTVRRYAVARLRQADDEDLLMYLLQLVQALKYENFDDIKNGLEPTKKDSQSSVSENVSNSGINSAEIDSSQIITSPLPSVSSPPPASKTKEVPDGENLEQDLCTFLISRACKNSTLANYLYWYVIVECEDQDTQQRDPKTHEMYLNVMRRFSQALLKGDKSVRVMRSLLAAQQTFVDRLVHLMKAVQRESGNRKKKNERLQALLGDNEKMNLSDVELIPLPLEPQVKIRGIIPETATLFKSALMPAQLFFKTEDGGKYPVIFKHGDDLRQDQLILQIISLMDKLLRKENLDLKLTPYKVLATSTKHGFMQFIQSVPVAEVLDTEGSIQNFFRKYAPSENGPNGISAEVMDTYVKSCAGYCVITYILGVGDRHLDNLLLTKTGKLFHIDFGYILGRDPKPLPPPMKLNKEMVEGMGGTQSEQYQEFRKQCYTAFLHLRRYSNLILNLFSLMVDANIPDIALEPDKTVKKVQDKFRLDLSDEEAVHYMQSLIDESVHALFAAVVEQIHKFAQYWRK

Row | SMILES | IC50 [nM]
1 | CC(C)CC(=O)CN1c2nc(N3CCOC[C@H]3C)cc(=O)n2CC[C@H]1C(F)(F)F [Example 276, (S)-2-((R)-3-Methyl-morpholin-4-yl)-9-(4-methyl-2-oxo-pentyl)-8-trifluoromethyl-6,7,8,9-tetrahydro-pyrimido[1,2-a]-pyrimidin-4-one] | < 10
2 | CC(C)C(=O)CN1c2nc(N3CCOC[C@@H]3C)c(F)c(=O)n2CC[C@H]1C(F)(F)F [Example 278, (S)-3-Fluoro-2-((S)-3-methylmorpholin-4-yl)-9-(3-methyl-2-oxo-butyl)-8-trifluoromethyl-6,7,8,9-tetrahydro-pyrimido[1,2-a]-pyrimidin-4-one] | > 100
3 | CC(C)CCC(=O)CN1c2nc(N3CCOC[C@H]3C)c(F)c(=O)n2CC[C@H]1C(F)(F)F [Example 279, (S)-3-Fluoro-2-((R)-3-methylmorpholin-4-yl)-9-(5-methyl-2-oxo-hexyl)-8-trifluoromethyl-6,7,8,9-tetrahydro-pyrimido[1,2-a]-pyrimidin-4-one] | < 10
4 | CC(C)CC(=O)CN1c2nc(N3CCOC[C@H]3C)c(F)c(=O)n2CC[C@H]1C(F)(F)F [Example 280, (S)-3-Fluoro-2-((R)-3-methylmorpholin-4-yl)-9-(4-methyl-2-oxo-pentyl)-8-trifluoromethyl-6,7,8,9-tetrahydro-pyrimido[1,2-a]-pyrimidin-4-one] | < 10
5 | CCC(CC)C(=O)CN1c2nc(N3CCOC[C@H]3C)cc(=O)n2CC[C@H]1C(F)(F)F [Example 281, (S)-9-(3-Ethyl-2-oxo-pentyl)-2-((R)-3-methylmorpholin-4-yl)-8-trifluoromethyl-6,7,8,9-tetrahydro-pyrimido[1,2-a]-pyrimidin-4-one] | < 10
6 | CCC(CC)C(=O)CN1c2nc(N3CCOC[C@H]3C)c(F)c(=O)n2CC[C@H]1C(F)(F)F [Example 282, (S)-9-(3-Ethyl-2-oxo-pentyl)-3-fluoro-2-((R)-3-methylmorpholin-4-yl)-8-trifluoromethyl-6,7,8,9-tetrahydro-pyrimido[1,2-a]-pyrimidin-4-one] | < 10
7 | COC(=O)CN1c2nc(N3CCOC[C@H]3C)c(F)c(=O)n2CC[C@H]1C(F)(F)F [Example 283, [(S)-7-Fluoro-8-((R)-3-methylmorpholin-4-yl)-6-oxo-2-trifluoromethyl-3,4-dihydro-2H,6H-pyrimido[1,2-a]-pyrimidin-1-yl]acetic acid methyl ester] | < 10
8 | CC(C)CCC(=O)CN1c2nc(N3CCOC[C@H]3C)cc(=O)n2CC[C@H]1C(F)(F)F [Example 290, (S)-2-((R)-3-Methyl-morpholin-4-yl)-9-(5-methyl-2-oxo-hexyl)-8-trifluoromethyl-6,7,8,9-tetrahydro-pyrimido[1,2-a]-pyrimidin-4-one] | < 10
9 | CCC(C)C(=O)CN1c2nc(N3CCOC[C@H]3C)cc(=O)n2CC[C@H]1C(F)(F)F (stereo partly drawn) [Example 291, (S)-2-((R)-3-Methyl-morpholin-4-yl)-9-(3-methyl-2-oxo-pentyl)-8-trifluoromethyl-6,7,8,9-tetrahydro-pyrimido[1,2-a]-pyrimidin-4-one] | < 10
10 | C[C@@H]1COCCN1c1nc2n(c(=O)c1F)CC[C@@H](C(F)(F)F)N2CC(=O)N1CC2(COC2)C1 [Example 293, (S)-3-Fluoro-2-((R)-3-methylmorpholin-4-yl)-9-[2-(2-oxa-6-aza-spiro[3.3]hept-6-yl)-2-oxoethyl]-8-trifluoromethyl-6,7,8,9-tetrahydro-pyrimido[1,2-a]-pyrimidin-4-one] | < 10
11 | Cc1cc(C(=O)CN2c3nc(N4CCOC[C@H]4C)c(F)c(=O)n3CC[C@H]2C(F)(F)F)no1 [Example 294, (S)-3-Fluoro-9-[2-(5-methylisoxazol-3-yl)-2-oxoethyl]-2-((R)-3-methylmorpholin-4-yl)-8-trifluoromethyl-6,7,8,9-tetrahydro-pyrimido[1,2-a]-pyrimidin-4-one] | < 10
12 | C[C@@H]1COCCN1c1cc(=O)n2c(n1)N(C[C@H](F)c1ccccc1)[C@H](C(F)(F)F)CC2 [Example 295, (S)-9-(2-Fluoro-2-phenylethyl)-2-((R)-3-methylmorpholin-4-yl)-8-trifluoromethyl-6,7,8,9-tetrahydro-pyrimido[1,2-a]-pyrimidin-4-one] | < 10

Further lines, results first:

Row | IC50 [nM] | SMILES
13 | 10 to 100 | C[C@@H]1COCCN1c1cc(=O)n2c(n1)N(CC(=O)C1CCOC1)[C@H](C(F)(F)F)CC2 (stereo partly drawn) [Example 269, (S)-2-((R)-3-Methyl-morpholin-4-yl)-9-[2-oxo-2-(tetrahydro-furan-3-yl)ethyl]-8-trifluoromethyl-6,7,8,9-tetrahydro-pyrimido[1,2-a]-pyrimidin-4-one]
14 | 10 to 100 | Cc1nc(CN2c3nc(N4CC5CCC(C4)O5)cc(=O)n3CC[C@H]2C(F)(F)F)no1 [Example 270, (S)-9-(5-Methyl-[1,2,4]oxadiazol-3-yl-methyl)-2-(8-oxa-3-azabicyclo[3.2.1]oct-3-yl)-8-trifluoromethyl-6,7,8,9-tetrahydro-pyrimido[1,2-a]-pyrimidin-4-one]
15 | 10 to 100 | O=C(CN1c2nc(N3CC4CCC(C3)O4)cc(=O)n2CC[C@H]1C(F)(F)F)C1CC1 [Example 271, (S)-9-(2-Cyclopropyl-2-oxoethyl)-2-(8-oxa-3-azabicyclo[3.2.1]oct-3-yl)-8-trifluoromethyl-6,7,8,9-tetrahydro-pyrimido[1,2-a]-pyrimidin-4-one]
16 | > 100 | CC(C)C(=O)CN1c2nc(N3CC4CCC(C3)O4)cc(=O)n2CC[C@H]1C(F)(F)F [Example 272, (S)-9-(3-Methyl-2-oxo-butyl)-2-(8-oxa-3-aza-bicyclo[3.2.1]oct-3-yl)-8-trifluoromethyl-6,7,8,9-tetrahydro-pyrimido[1,2-a]-pyrimidin-4-one]
17 | 10 to 100 | O=C(CN1c2nc(N3CC4CCC(C3)O4)c(F)c(=O)n2CC[C@H]1C(F)(F)F)C1CC1 [Example 273, (S)-9-(2-Cyclopropyl-2-oxoethyl)-3-fluoro-2-(8-oxa-3-aza-bicyclo[3.2.1]oct-3-yl)-8-trifluoromethyl-6,7,8,9-tetrahydro-pyrimido[1,2-a]-pyrimidin-4-one]
18 | 10 to 100 | CC(C)C(=O)CN1c2nc(N3CC4CCC(C3)O4)c(F)c(=O)n2CC[C@H]1C(F)(F)F [Example 274, (S)-3-Fluoro-9-(3-methyl-2-oxobutyl)-2-(8-oxa-3-aza-bicyclo[3.2.1]oct-3-yl)-8-trifluoromethyl-6,7,8,9-tetrahydro-pyrimido[1,2-a]-pyrimidin-4-one]
19 | 10 to 100 | Cc1nc(CN2c3nc(N4CC5CCC(C4)O5)c(F)c(=O)n3CC[C@H]2C(F)(F)F)no1 [Example 275, (S)-3-Fluoro-9-(5-methyl-[1,2,4]oxadiazol-3-yl-methyl)-2-(8-oxa-3-azabicyclo[3.2.1]oct-3-yl)-8-trifluoromethyl-6,7,8,9-tetrahydro-pyrimido[1,2-a]-pyrimidin-4-one]
20 | < 10 | CC(C)C(O)CN1c2nc(N3CCOC[C@H]3C)cc(=O)n2CC[C@H]1C(F)(F)F (stereo partly drawn) [Example 287, (S)-9-(2-Hydroxy-3-methylbutyl)-2-((R)-3-methylmorpholin-4-yl)-8-trifluoromethyl-6,7,8,9-tetrahydro-pyrimido[1,2-a]-pyrimidin-4-one]
21 | < 10 | C[C@@H]1COCCN1c1cc(=O)n2c(n1)N(Cc1nc(C(F)(F)F)no1)[C@H](C(F)(F)F)CC2 [Example 292, (S)-2-((R)-3-Methyl-morpholin-4-yl)-8-trifluoromethyl-9-(3-trifluoromethyl-[1,2,4]oxadiazol-5-yl-methyl)-6,7,8,9-tetrahydro-pyrimido[1,2-a]-pyrimidin-4-one]
